Laboratory results published in patent US20090291950A1, “BICYCLIC HETEROARYL INHIBITORS OF PDE4” (KALYPSYS, INC., priority 2006, published 2009).

Tests used:
PDE4B = molecular target: T1, PDE4B (Homo sapiens, UniProt Q07343); test: coupled PDE/AK bioluminescent assay; assay type: biochemical; conditions: catalytic domain of PDE4B
T1 construct: hexahistidine (His6) (N); made in house
Text: Phosphodiesterases regulate the activity of the second messenger cyclic adenosine monophosphate (cAMP) by hydrolyzing cAMP to adenosine monophosphate (AMP). We developed a novel coupled PDE/AK bioluminescent high-throughput assay to measure the activity of phosphodiesterases. In the PDE/AK assay, the AMP produced from the hydrolysis of cAMP by phosphodiesterase is converted to adenosine diphosphate (ADP) by the phosphotransferase activity of adenylate kinase (also known as ADK or myokinase). Adenylate kinase will catalyze the conversion of 1 mole of AMP and 1 mole of ATP into 2 moles of ADP. Thus the conversion of AMP to ADP will result in the subsequent loss of ATP. The decrease in ATP concentration can be monitored as light output using luciferase in a reaction that requires ATP to produce light. The PDE/AK assay uses luciferase, which catalyzes the production of light from ATP present in the reaction mix. The amount of emitted light is inversely proportional to the level of AMP present in the reaction. Test compounds are incubated with the phosphodiesterases and phosphodiesterase inhibitors will decrease the rate of cAMP hydrolysis and decrease the subsequent production of AMP. Thus phosphodiesterase inhibitors will decrease the conversion of ATP to ADP and result in the greatest emission of light.
Compounds may be screened for functional potency in in vitro biochemical assays for their ability to inhibit the activity of phosphodiesterase (PDE) enzymes. A novel coupled PDE/AK assay was utilized to measure the inhibitory activity of compounds on PDE isoforms. The catalytic domain of PDE4B was fused to an amino-terminus hex-histidine affinity tag and purified. PDE4B enzyme was incubated with compounds for 10 minutes. Cyclic AMP substrate, ATP and adenylate kinase were then added to the PDE enzyme mix and incubated for 45 minutes at room temperature. A commercial ATP detection assay, Perkin Elmer's easyLite ATP detection reagent, was then added to measure the relative amount of ATP present in the reaction. After 10 minute incubation, the luminescent signal was quantitated with either the Perkin Elmer Viewlux or Molecular Devices Acquest or Analyst. Roflumilast and Rolipram are the positive controls used in the assay.
The PDE/AK assay can be performed with any cAMP dependent phosphodiesterase, and can be performed in 96-, 384-, or 1536-well plates. […] Specifically, the use of radioactive substrates in a phosphodiesterase activity assay requires special protocols for handling and waste disposal, and reduced throughput. Modified substrates add the additional complexity of potentially altering the binding to the phosphodiesterase catalytic site. Fluorescently modified substrates may cause fluorescence artifacts that may interfere in the interpretation of assay results. The use of beads that selectively bind to either the cAMP or AMP may cause an additional complexity in reagent handling. The use of antibodies that selectively bind to either cAMP or AMP can be extremely costly with a relatively small signal to noise ratio. Therefore, the novel PDE/AK assay represents a simple, cost-effective alternative to known methods.

[1] = system: dry eye (corneal staining, tear breakup time); test: Lacrimal gland inflammation-induced dry eye in rabbits; assay type: in vivo; conditions: topical ocular BID, rabbit ConA dry eye
Text: A more detailed description of the assay used herein may be found in Naglehout, T J et al. 2005, “Preservation of Tear Film Integrity and Inhibition of Corneal Injury by Dexamethasone in a Rabbit Model of Lacrimal Gland Inflammation-Induced Dry Eye,”J. Ocular Pharm. Ther., 21:2. 139-148, the disclosure of which is hereby incorporated by reference as if written herein in its entirety. Rabbits (n=4/group) were randomized into treatment groups and dosed topically BID with maxidex vehicle or test drug beginning one day prior to initiation of dry eye. Each rabbit received bilateral lacrimal gland injections of saline or ConA (300 μg/30 μl) and topical ocular dosing was continued BID throughout the study. Desiccation was initiated 1-2 hours following lacrimal gland injection by placing conscious rabbits in the environmental chamber (10-15% humidity/72° F.). Following 72 consecutive hours of exposure to this dry environment, the animals were anesthetized and sutures were placed in each upper and lower eyelid and lifted to form a corneal/conjunctival cup. Methylene blue dye (1 mL, 1% in dH2O) was added to the cup for three minutes and the excess removed by washing with 200 mL BSS®. The contralateral eye was then stained using the same procedure. Rabbits were euthanized immediately following the staining procedure and the eyes were excised. The corneas were isolated with a trephine and the 9.5-mm punch of the cornea was placed in 2 mL acetone/saturated sodium sulfate (7:3, vol./vol.). Absorbance of the extracted dye was determined at 660 nm. TBUT was quantified in a separate group of treated animals. TBUT was determined by instilling 5 μL sodium fluorescein into the cul de sac and manually blinking the lids to distribute the fluorescein within the tear film. Under slit lamp observation, the eye was held open and the time whereby one or more black spots or streaks appeared in the precorneal tear film was recorded. The rabbits were euthanized 3 days following ConA inj ection.

T1 sequence (Q07343 330-659 limits assumed, species assumed): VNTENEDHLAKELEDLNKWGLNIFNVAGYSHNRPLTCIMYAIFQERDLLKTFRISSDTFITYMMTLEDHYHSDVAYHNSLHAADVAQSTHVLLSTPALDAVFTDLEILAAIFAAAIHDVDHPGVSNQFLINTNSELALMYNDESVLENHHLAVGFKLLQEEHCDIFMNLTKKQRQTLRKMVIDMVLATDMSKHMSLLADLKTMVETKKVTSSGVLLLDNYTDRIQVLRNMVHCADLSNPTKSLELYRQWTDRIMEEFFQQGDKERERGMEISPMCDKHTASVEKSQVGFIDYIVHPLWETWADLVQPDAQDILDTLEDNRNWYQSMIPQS

- IC50 (PDE4B): ≤ 1 µM
Compound: COc1ccc2c(Nc3c(Cl)cncc3Cl)cc(OCCN(C)C)nc2c1OCC1CC1 [Example 30, 8-(Cyclopropylmethoxy)-N-(3,5-dichloropyridin-4-yl)-2-(2-(dimethylamino)ethoxy)-7-methoxyquinolin-4-amine]
- Activity at Percent Concentration Tested ([1]; 1 × 10^−2 percent concentration): Inactive
- Activity at Percent Concentration Tested ([1]; 1 × 10^−4 percent concentration): Inactive
- Activity at Percent Concentration Tested ([1]; 1 × 10^−6 percent concentration): Inactive
